Reference: PubChem BioAssay (NCI)
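Tested at 5 concentrations; 48 h exposure; 96-well plates; endpoints linearly interpolated, else capped at highest concentration. At the TGI there is no net growth.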

Assays:
Experiment in all cases: NCI tumour cell line growth inhibition, 48 h
[1] = tested on: SR leukemia
[2] = tested on: DU-145 prostate
[3] = tested on: COLO 205 colon
[4] = tested on: RXF 393 renal
[5] = tested on: A549 NSCLC
[6] = tested on: 786-0 renal
[7] = tested on: K-562 leukemia
[8] = tested on: EKVX NSCLC
[9] = tested on: SK-MEL-28 melanoma
[10] = tested on: CAKI-1 renal
[11] = tested on: MOLT-4 leukemia
[12] = tested on: NCI/ADR-RES ovarian
[13] = tested on: HCT-15 colon
[14] = tested on: IGROV1 ovarian
[15] = tested on: SF-539 CNS
[16] = tested on: SF-268 CNS
[17] = tested on: BT-549 breast
[18] = tested on: OVCAR-5 ovarian
[19] = tested on: UACC-62 melanoma
[20] = tested on: HS 578T breast
[21] = tested on: NCI-H522 lung
[22] = tested on: NCI-H23 lung
[23] = tested on: SK-MEL-5 melanoma
[24] = tested on: MCF7 breast
[25] = tested on: MDA-MB-435
[26] = tested on: OVCAR-8 ovarian
[27] = tested on: OVCAR-3 ovarian
[28] = tested on: SNB-19 CNS
[29] = tested on: HOP-92 NSCLC
[30] = tested on: KM12 colon
[31] = tested on: RPMI-8226 leukemia
[32] = tested on: ACHN renal
[33] = tested on: SK-MEL-2 melanoma
[34] = tested on: SF-295 CNS
[35] = tested on: MDA-MB-231 breast
[36] = tested on: SK-OV-3 ovarian
[37] = tested on: M14 melanoma
[38] = tested on: HCC-2998 colon
[39] = tested on: SW-620 colon
[40] = tested on: PC-3 prostate
[41] = tested on: SN12C renal
[42] = tested on: HOP-62 NSCLC
[43] = tested on: UACC-257 melanoma
[44] = tested on: OVCAR-4 ovarian
[45] = tested on: UO-31 renal
[46] = tested on: HT29 colon
[47] = tested on: MDA-N
[48] = tested on: CCRF-CEM leukemia
[49] = tested on: U251 CNS
[50] = tested on: NCI-H460 lung
[51] = tested on: HCT-116 colon
[52] = tested on: TK-10 renal
[53] = tested on: NCI-H226 lung
[54] = tested on: LOX IMVI melanoma
[55] = tested on: A498 renal
[56] = tested on: MALME-3M melanoma
[57] = tested on: HL-60(TB) leukemia
[58] = tested on: SNB-75 CNS

With `CC(=O)OCC1OC(N2C(=S)N[C@H]([C@@H](O)[C@H](O)[C@H](O)CO)[C@H]2O)C(OC(C)=O)C(OC(C)=O)C1OC(C)=O` (stereo partly specified) the TGI [1] was over 100 µM, the TGI [2] was over 100 µM and the TGI [3] was over 100 µM. The TGI [4] was over 100 µM, the TGI [5] was over 100 µM and the TGI [6] was over 100 µM. The TGI [7] was over 100 µM, the TGI [8] was over 100 µM and the TGI [9] was over 100 µM. The TGI [10] was over 100 µM, the TGI [11] was over 100 µM and the TGI [12] was over 100 µM. It also gave a TGI [13] of over 100 µM, a TGI [14] of over 100 µM and a TGI [15] of over 100 µM. It also gave a TGI [16] of over 100 µM, a TGI [17] of over 100 µM and a TGI [18] of over 100 µM. For the same compound, the TGI [19] was over 100 µM, the TGI [20] was over 100 µM and the TGI [21] was over 100 µM. The TGI [22] was over 100 µM, the TGI [23] was over 100 µM and the TGI [24] was over 100 µM. For the same compound, the TGI [25] was over 100 µM, the TGI [26] was over 100 µM and the TGI [27] was over 100 µM. It also gave a TGI [28] of over 100 µM, a TGI [29] of over 100 µM and a TGI [30] of over 100 µM. The TGI [31] was over 100 µM, the TGI [32] was over 100 µM and the TGI [33] was over 100 µM. For the same compound, the TGI [34] was over 100 µM, the TGI [35] was over 100 µM and the TGI [36] was over 100 µM. The TGI [37] was over 100 µM, the TGI [38] was over 100 µM and the TGI [39] was over 100 µM. The TGI [40] was over 100 µM, the TGI [41] was over 100 µM and the TGI [42] was over 100 µM. The TGI [43] was over 100 µM, the TGI [44] was over 100 µM and the TGI [45] was over 100 µM. The TGI [46] was over 100 µM, the TGI [47] was over 100 µM and the TGI [48] was over 100 µM. It also gave a TGI [49] of over 100 µM, a TGI [50] of over 100 µM and a TGI [51] of over 100 µM.

For `CC(=O)Nc1ccc(NNc2cc(=O)n(C)c(=O)[nH]2)cc1`, the TGI [1] was over 100 µM, the TGI [2] was 29.5 µM and the TGI [3] was 24 µM. It also gave a TGI [52] of 39 µM, a TGI [53] of 46 µM and a TGI [5] of 34.7 µM. It also gave a TGI [6] of 7.63 µM, a TGI [7] of over 100 µM and a TGI [8] of 31.5 µM. The TGI [9] was 24.2 µM, the TGI [11] was over 100 µM and the TGI [12] was 43.8 µM. It also gave a TGI [13] of 20.6 µM, a TGI [14] of 27 µM and a TGI [15] of 30.2 µM. It also gave a TGI [17] of 25.7 µM, a TGI [18] of 27.1 µM and a TGI [20] of 53 µM. The TGI [54] was 5.72 µM, the TGI [22] was 31.1 µM and the TGI [23] was 31.2 µM. For the same compound, the TGI [24] was 19.5 µM, the TGI [25] was 22.3 µM and the TGI [26] was 45.1 µM. The TGI [27] was 6.52 µM, the TGI [28] was 31.6 µM and the TGI [29] was 9.64 µM. The TGI [30] was 24.4 µM, the TGI [55] was 49.1 µM and the TGI [31] was 9.69 µM. It also gave a TGI [32] of 11.4 µM, a TGI [34] of 29.3 µM and a TGI [35] of 24.8 µM. It also gave a TGI [37] of 21.8 µM, a TGI [38] of 24 µM and a TGI [39] of 7.56 µM. For the same compound, the TGI [40] was 12.3 µM, the TGI [41] was 23.9 µM and the TGI [42] was 30.4 µM. For the same compound, the TGI [43] was 26.8 µM, the TGI [56] was 25.2 µM and the TGI [57] was 6.98 µM. For the same compound, the TGI [44] was 21.9 µM, the TGI [45] was 31 µM and the TGI [46] was 4.71 µM. The TGI [47] was 23.7 µM, the TGI [49] was 24 µM and the TGI [50] was 45.2 µM. The TGI [51] was 19.3 µM.

`C/C=C\C(CC(=O)O)CN1CCC2=C(C1)C(S(=O)(=O)C(F)(F)F)c1ccccc12` (stereo unspecified) gave a TGI [1] of over 100 µM, a TGI [2] of over 100 µM and a TGI [3] of over 100 µM. For the same compound, the TGI [4] was over 100 µM, the TGI [5] was over 100 µM and the TGI [6] was over 100 µM. The TGI [7] was over 100 µM, the TGI [8] was over 100 µM and the TGI [9] was over 100 µM. For the same compound, the TGI [10] was over 100 µM, the TGI [11] was over 100 µM and the TGI [12] was over 100 µM. The TGI [13] was over 100 µM, the TGI [14] was over 100 µM and the TGI [16] was over 100 µM. It also gave a TGI [17] of over 100 µM, a TGI [18] of over 100 µM and a TGI [19] of over 100 µM. The TGI [20] was over 100 µM, the TGI [21] was over 100 µM and the TGI [58] was over 100 µM. The TGI [22] was over 100 µM, the TGI [23] was over 100 µM and the TGI [24] was over 100 µM. The TGI [25] was over 100 µM, the TGI [26] was over 100 µM and the TGI [27] was over 100 µM. It also gave a TGI [28] of over 100 µM, a TGI [29] of over 100 µM and a TGI [30] of over 100 µM. For the same compound, the TGI [55] was over 100 µM, the TGI [31] was over 100 µM and the TGI [32] was over 100 µM. For the same compound, the TGI [33] was over 100 µM, the TGI [34] was over 100 µM and the TGI [35] was over 100 µM. The TGI [36] was over 100 µM, the TGI [37] was over 100 µM and the TGI [38] was over 100 µM. The TGI [39] was over 100 µM, the TGI [40] was over 100 µM and the TGI [42] was over 100 µM. For the same compound, the TGI [43] was over 100 µM, the TGI [56] was over 100 µM and the TGI [44] was over 100 µM. The TGI [45] was over 100 µM, the TGI [46] was over 100 µM and the TGI [47] was over 100 µM. The TGI [49] was over 100 µM, the TGI [50] was over 100 µM and the TGI [51] was over 100 µM.
